Test results from US20110189241A1, “Process For Controlling The Particle Size of A [3-(Trifluoromethyl)Phenyl]-1-Aminopropane Derivative” (Medichem, S.A., priority 2008, published 2011).

Test: Particle size distribution (Malvern Mastersizer S, laser diffraction, by volume)
Type: physicochemical
Settings: for particle size D[v, 0.5]: crystals as isolated after crystallization from isobutyl acetate and drying, mean of nine readings, hydrochloride
Protocol: The particle size for cinacalcet hydrochloride was measured using a Malvern Mastersizer S particle size analyzer with an MS1 Small Volume Sample Dispersion Unit stirred cell. A 300RF mm lens and a beam length of 2.4 mm were used. Samples for analysis were prepared by dispersing a weighed amount of cinacalcet hydrochloride (approximately 60 mg) in 20 mL of sample dispersant, previously prepared by dilution of 1.5 g of Soybean Lecithin to 200 mL with Isopar G. The suspension was delivered drop-wise to the background-corrected measuring cell filled with dispersant (Isopar G) until the obscuration reached the desired level. Nine repeated readings of the volume distributions were taken. For characterization, the values of D50 and D90 (by volume) were selected and reported as the mean of the nine values measured.

C[C@@H](NCCCc1cccc(C(F)(F)F)c1)c1cccc2ccccc12.Cl [Example 4, cinacalcet hydrochloride]
particle size D[v, 0.9] (crystals as isolated after crystallization (Example 4)): 404 µm

C[C@@H](NCCCc1cccc(C(F)(F)F)c1)c1cccc2ccccc12.Cl [Example 6, cinacalcet hydrochloride]
particle size D[v, 0.5]: 65.0 μm

C[C@@H](NCCCc1cccc(C(F)(F)F)c1)c1cccc2ccccc12.Cl [Example 9, cinacalcet hydrochloride]
particle size D[v, 0.9] (crystals as isolated after crystallization (Example 9)): 518 µm
particle size D[v, 0.5]: 74.0 μm
